Test results reported in patent US20100286076A1, “ECTOPARASITICIDAL METHODS AND FORMULATIONS” (priority 2009, published 2010).

Experiments:
[1] = tested on: Ctenocephalides felis; test: Pulse vs. single dose administration per os to dogs, flea infestation comb counts; format: in vivo
Procedure: Pulse vs. Single dose administration per os to dogs/Ctenocephalides felis Another dog study was undertaken to evaluate the effect on flea infestation of 1) oral administration of a single point dose of 60 mg/kg; 2) oral administration of a pulsed dosing scheme of 20 mg/kg TID every 2 hours for one day; 3) oral administration of a pulsed dosing scheme of 20 mg/kg TID every 4 hours for one day; and 4) post-treatment plasma concentration of spinetoram.
Four treatment groups of 8 dogs each (4 male: 4 female) were dosed spinetoram as follows:
Treatment Group 1: 60 mg/kg, single dose
Treatment Group 2: 60 mg/kg, (20 mg/kg every 2 hours, three times)
Treatment Group 3: 60 mg/kg, (20 mg/kg every 4 hours, three times)
Treatment Group 4: 0 mg/kg, (negative control)
The dogs were housed individually in concrete-floored chain-link kennels both inside and outside. During the study period the dogs were fed a dry dog chow, except for two days prior to and the day of treatment (day 0) when they received wet canned food. The dogs had ad libitum access to water.
The treated dogs received one or more gelatin capsules containing technical active spinetoram powder by mouth, with treatment group 4 receiving placebo. Each dog was experimentally infested with about 100 fleas on test days—1,5,12,19, 28, 35, 42, 49, and 56. Knockdown assessments were conducted 24 hours after dosing, with residual efficacy evaluated subsequently at 48 hours after each subsequent infestation. The day 1 comb count served to determine the initial/knockdown efficacy, approximately 24 hours after the 60 mg/kg dose, or the first of the pulse dose. Blood samples were drawn to determine concentration of spinetoram in plasma.

[2] = tested on: adult stage kennel ticks, Rhipicephalus sanguineus; test: Oral administration per os to dogs, experimental kennel tick infestation; format: in vivo; conditions: at the doses tested (30, 50 or 100 mg/kg)
Procedure: Oral administration per os to dogs. Given the above data, investigation into oral efficacy in dogs was begun. The investigation was conducted to evaluate 1) efficacy for a point dose of 30 mg/kg, against experimental, concurrent infestations with the adult cat flea, Ctenocephalides felis; adult stage American dog ticks, Dermacentor variabilis; and adult stage kennel ticks, Rhipicephalus sanguineus; 2) plasma concentrations of the 30 mg/kg treated dogs; and 3) efficacy for point dosages of either 50 mg/kg or 100 mg/kg, against experimental infestations with adult stage kennel ticks, R. sanguineus.
Sixteen dogs were selected for two groups of eight dogs (4 male: 4 female) per group. One treatment group received spinetoram, while the other group was left untreated. The dogs were housed individually in concrete-floored chain-link kennels both inside and outside. During the study period the dogs were fed a dry dog chow, except for the day of treatment (day 0) when they received wet canned food. The dogs had ad libitum access to water. […]
Each dog was experimentally infested with about 100 adult fleas, and 50 ticks of each species on test days—1,5,12,19, 28, 35, and 42, with additional flea infestations conducted on days 49 and 56. […] Knockdown activity (Day 1) was determined using 24 hr post-dosing comb counts. […]

Spinetoram
geometric mean live adult flea count ([1]; oral 20 mg/kg TID@2 h, Day 1): 0.0
geometric mean percent reduction in live adult flea counts compared to the untreated control group ([1]; oral 20 mg/kg TID@2 h, Day 1): (100) percent
geometric mean live adult flea count ([1]; oral 20 mg/kg TID@2 h, Day 7): 0.0
geometric mean percent reduction in live adult flea counts compared to the untreated control group ([1]; oral 20 mg/kg TID@2 h, Day 7): (100) percent
geometric mean live adult flea count ([1]; oral 20 mg/kg TID@2 h, Day 14): 0.0
geometric mean percent reduction in live adult flea counts compared to the untreated control group ([1]; oral 20 mg/kg TID@2 h, Day 14): (100) percent
geometric mean live adult flea count ([1]; oral 20 mg/kg TID@2 h, Day 21): 0.0
geometric mean percent reduction in live adult flea counts compared to the untreated control group ([1]; oral 20 mg/kg TID@2 h, Day 21): (100) percent
geometric mean live adult flea count ([1]; oral 20 mg/kg TID@2 h, Day 30): 0.0
geometric mean percent reduction in live adult flea counts compared to the untreated control group ([1]; oral 20 mg/kg TID@2 h, Day 30): (100) percent
geometric mean live adult flea count ([1]; oral 20 mg/kg TID@2 h, Day 37): 0.0
geometric mean percent reduction in live adult flea counts compared to the untreated control group ([1]; oral 20 mg/kg TID@2 h, Day 37): (100) percent
geometric mean live adult flea count ([1]; oral 20 mg/kg TID@2 h, Day 44): 0.0
geometric mean percent reduction in live adult flea counts compared to the untreated control group ([1]; oral 20 mg/kg TID@2 h, Day 44): (100) percent
geometric mean live adult flea count ([1]; oral 20 mg/kg TID@2 h, Day 51): 0.0
geometric mean percent reduction in live adult flea counts compared to the untreated control group ([1]; oral 20 mg/kg TID@2 h, Day 51): (100) percent
geometric mean live adult flea count ([1]; oral 20 mg/kg TID@2 h, Day 58): 0.0
geometric mean percent reduction in live adult flea counts compared to the untreated control group ([1]; oral 20 mg/kg TID@2 h, Day 58): (100) percent
geometric mean live adult flea count ([1]; oral 20 mg/kg TID@2 h, Day 72): 0.0
geometric mean percent reduction in live adult flea counts compared to the untreated control group ([1]; oral 20 mg/kg TID@2 h, Day 72): (100) percent
geometric mean live adult flea count ([1]; oral 20 mg/kg TID@2 h, Day 86): 6.4
geometric mean percent reduction in live adult flea counts compared to the untreated control group ([1]; oral 20 mg/kg TID@2 h, Day 86): (91.7) percent
geometric mean live adult flea count ([1]; oral 20 mg/kg TID@2 h, Day 93): 2.5
geometric mean percent reduction in live adult flea counts compared to the untreated control group ([1]; oral 20 mg/kg TID@2 h, Day 93): (96.7) percent
geometric mean live adult flea count ([1]; oral 20 mg/kg TID@2 h, Day 100): 10.0
geometric mean percent reduction in live adult flea counts compared to the untreated control group ([1]; oral 20 mg/kg TID@2 h, Day 100): (88.0) percent
geometric mean live adult flea count ([1]; oral 20 mg/kg TID@2 h, Day 107): 4.8
geometric mean percent reduction in live adult flea counts compared to the untreated control group ([1]; oral 20 mg/kg TID@2 h, Day 107): (94.1) percent
geometric mean live adult flea count ([1]; oral 20 mg/kg TID@4 h, Day 1): 0.0
geometric mean percent reduction in live adult flea counts compared to the untreated control group ([1]; oral 20 mg/kg TID@4 h, Day 1): (100) percent
geometric mean live adult flea count ([1]; oral 20 mg/kg TID@4 h, Day 7): 0.0
geometric mean percent reduction in live adult flea counts compared to the untreated control group ([1]; oral 20 mg/kg TID@4 h, Day 7): (100) percent
geometric mean live adult flea count ([1]; oral 20 mg/kg TID@4 h, Day 14): 0.0
geometric mean percent reduction in live adult flea counts compared to the untreated control group ([1]; oral 20 mg/kg TID@4 h, Day 14): (100) percent
geometric mean live adult flea count ([1]; oral 20 mg/kg TID@4 h, Day 21): 0.0
geometric mean percent reduction in live adult flea counts compared to the untreated control group ([1]; oral 20 mg/kg TID@4 h, Day 21): (100) percent
geometric mean live adult flea count ([1]; oral 20 mg/kg TID@4 h, Day 30): 0.2
geometric mean percent reduction in live adult flea counts compared to the untreated control group ([1]; oral 20 mg/kg TID@4 h, Day 30): (99.8) percent
geometric mean live adult flea count ([1]; oral 20 mg/kg TID@4 h, Day 37): 0.0
geometric mean percent reduction in live adult flea counts compared to the untreated control group ([1]; oral 20 mg/kg TID@4 h, Day 37): (100) percent
geometric mean live adult flea count ([1]; oral 20 mg/kg TID@4 h, Day 44): 0.0
geometric mean percent reduction in live adult flea counts compared to the untreated control group ([1]; oral 20 mg/kg TID@4 h, Day 44): (100) percent
geometric mean live adult flea count ([1]; oral 20 mg/kg TID@4 h, Day 51): 0.2
geometric mean percent reduction in live adult flea counts compared to the untreated control group ([1]; oral 20 mg/kg TID@4 h, Day 51): (99.7) percent
geometric mean live adult flea count ([1]; oral 20 mg/kg TID@4 h, Day 58): 0.0
geometric mean percent reduction in live adult flea counts compared to the untreated control group ([1]; oral 20 mg/kg TID@4 h, Day 58): (100) percent
geometric mean live adult flea count ([1]; oral 20 mg/kg TID@4 h, Day 72): 0.2
geometric mean percent reduction in live adult flea counts compared to the untreated control group ([1]; oral 20 mg/kg TID@4 h, Day 72): (99.8) percent
geometric mean live adult flea count ([1]; oral 20 mg/kg TID@4 h, Day 86): 4.7
geometric mean percent reduction in live adult flea counts compared to the untreated control group ([1]; oral 20 mg/kg TID@4 h, Day 86): (93.8) percent
geometric mean live adult flea count ([1]; oral 20 mg/kg TID@4 h, Day 93): 4.8
geometric mean percent reduction in live adult flea counts compared to the untreated control group ([1]; oral 20 mg/kg TID@4 h, Day 93): (93.7) percent
geometric mean live adult flea count ([1]; oral 20 mg/kg TID@4 h, Day 100): 11.4
geometric mean percent reduction in live adult flea counts compared to the untreated control group ([1]; oral 20 mg/kg TID@4 h, Day 100): (86.3) percent
geometric mean live adult flea count ([1]; oral 20 mg/kg TID@4 h, Day 107): 8.5
geometric mean percent reduction in live adult flea counts compared to the untreated control group ([1]; oral 20 mg/kg TID@4 h, Day 107): (89.6) percent
geometric mean live adult flea count ([1]; oral 60 mg/kg SID, Day 1): 0.0
geometric mean percent reduction in live adult flea counts compared to the untreated control group ([1]; oral 60 mg/kg SID, Day 1): (100) percent
geometric mean live adult flea count ([1]; oral 60 mg/kg SID, Day 7): 0.0
geometric mean percent reduction in live adult flea counts compared to the untreated control group ([1]; oral 60 mg/kg SID, Day 7): (100) percent
geometric mean live adult flea count ([1]; oral 60 mg/kg SID, Day 14): 0.0
geometric mean percent reduction in live adult flea counts compared to the untreated control group ([1]; oral 60 mg/kg SID, Day 14): 100) percent
geometric mean live adult flea count ([1]; oral 60 mg/kg SID, Day 21): 0.0
geometric mean percent reduction in live adult flea counts compared to the untreated control group ([1]; oral 60 mg/kg SID, Day 21): (100) percent
geometric mean live adult flea count ([1]; oral 60 mg/kg SID, Day 30): 0.0
geometric mean percent reduction in live adult flea counts compared to the untreated control group ([1]; oral 60 mg/kg SID, Day 30): (100) percent
geometric mean live adult flea count ([1]; oral 60 mg/kg SID, Day 37): 0.0
geometric mean percent reduction in live adult flea counts compared to the untreated control group ([1]; oral 60 mg/kg SID, Day 37): (100) percent
geometric mean live adult flea count ([1]; oral 60 mg/kg SID, Day 44): 0.0
geometric mean percent reduction in live adult flea counts compared to the untreated control group ([1]; oral 60 mg/kg SID, Day 44): (100) percent
geometric mean live adult flea count ([1]; oral 60 mg/kg SID, Day 51): 0.0
geometric mean percent reduction in live adult flea counts compared to the untreated control group ([1]; oral 60 mg/kg SID, Day 51): (100) percent
geometric mean live adult flea count ([1]; oral 60 mg/kg SID, Day 58): 0.2
geometric mean percent reduction in live adult flea counts compared to the untreated control group ([1]; oral 60 mg/kg SID, Day 58): (99.8) percent
geometric mean live adult flea count ([1]; oral 60 mg/kg SID, Day 72): 0.0
geometric mean percent reduction in live adult flea counts compared to the untreated control group ([1]; oral 60 mg/kg SID, Day 72): (100) percent
geometric mean live adult flea count ([1]; oral 60 mg/kg SID, Day 86): 1.8
geometric mean percent reduction in live adult flea counts compared to the untreated control group ([1]; oral 60 mg/kg SID, Day 86): (97.7) percent
geometric mean live adult flea count ([1]; oral 60 mg/kg SID, Day 93): 1.9
geometric mean percent reduction in live adult flea counts compared to the untreated control group ([1]; oral 60 mg/kg SID, Day 93): (97.5) percent
geometric mean live adult flea count ([1]; oral 60 mg/kg SID, Day 100): 5.2
geometric mean percent reduction in live adult flea counts compared to the untreated control group ([1]; oral 60 mg/kg SID, Day 100): (93.7) percent
geometric mean live adult flea count ([1]; oral 60 mg/kg SID, Day 107): 3.2
geometric mean percent reduction in live adult flea counts compared to the untreated control group ([1]; oral 60 mg/kg SID, Day 107): (96.2) percent
activity against ticks [2]: did not demonstrate statistically significant activity
